Experimental data from ChEMBL document CHEMBL1130399 (J Med Chem, 1997).

Assays:
Mus musculus [1] = organism: Mus musculus; assay: Inhibition of spontaneous activity(SA) in mice was determined; format: functional
Mus musculus [2] = organism: Mus musculus; assay: Maximal degree of inhibition of electrically evoked contractions in a mouse vas deferens assay; format: functional
Mus musculus [3] = organism: Mus musculus; assay: Inhibition of tail flick response[…] in mice was determined; format: functional
Mus musculus [4] = organism: Mus musculus; assay: Maximum possible effect for ring immobility (RI); format: functional
Mus musculus [5] = organism: Mus musculus; assay: Effective concentration that causes twitch inhibition in a mouse vas deferens assay; format: functional, organism-based
Mus musculus [6] = organism: Mus musculus; assay: Maximum possible effect for inhibition of spontaneous activity (SA); format: functional
Mus musculus [7] = organism: Mus musculus; assay: Inhibition of ring immobility(RI) in mice was determined; format: functional
Mus musculus [8] = organism: Mus musculus; assay: Hypothermia measured as changes in rectal temperature (RT)
Cannabinoid receptor [9] = biological target: T1, Cannabinoid receptor (Rattus norvegicus, UniProt Q9QZN9+P20272); assay: Binding affinity towards cannabinoid receptor using [3H]CP-55940 as radioligand in rat brain membrane; format: cell membranes
Cannabinoid receptor [10] = biological target: T1, Cannabinoid receptor; assay: Binding affinity towards cannabinoid receptor using [3H]SR-141,716A as radioligand in rat brain membrane; format: cell membranes
Mus musculus [11] = organism: Mus musculus; assay: Inhibition of rectal temperature(RT) in mice was determined; format: functional
Mus musculus [12] = organism: Mus musculus; assay: Maximum possible effect for antinociception as measured by the tail flick response (TF); format: functional

| SMILES | ED50 (Mus musculus [1]) [mg/kg] | Emax (Mus musculus [2]) [%] | ED50 (Mus musculus [3]) [mg/kg] | MPE (Mus musculus [4]) [%] | EC50 (Mus musculus [5]) [nM] | MPE (Mus musculus [6]) [%] | ED50 (Mus musculus [7]) [mg/kg] | rectal temperature change (Mus musculus [8]) [°C] | Ki (Cannabinoid receptor [9]) [nM] | Ki (Cannabinoid receptor [10]) [nM] | ED50 (Mus musculus [11]) [mg/kg] | MPE (Mus musculus [12]) [%] |
| --- | --- | --- | --- | --- | --- | --- | --- | --- | --- | --- | --- | --- |
| CCCCCCC(C)(C)/C=C\C/C=C\C/C=C\C/C=C\CCCC(=O)N[C@@H](C)CO | 2.6 | 67.2 | 4.8 | 80 | 28.3 | 90 | 2.5 | -2 | 5 | 161 | 5 | 100 |
| CCCCCCC(C)(C)/C=C\C/C=C\C/C=C\C/C=C\CCCC(=O)NCCO | 1.5 | 68.3 | 1.7 | 74 | 59.7 | 90 | 1 | -3.5 | 1.9 | 153 | 2.9 | 91 |
| CCCCCCC(C)(C)/C=C\C/C=C\C/C=C\C/C=C\CCCC(=O)NCCOC | 4 | 44.6 | 13.3 | 86 | 36 | 98 | 5.7 | -1.5 | 3.9 | 54 | – | 100 |
| CCCCCCC(C)(C)/C=C\C/C=C\C/C=C\C/C=C\CCCC(=O)NCCC | 1.2 | 65.3 | 6.3 | 81 | 11.7 | – | – | -1.5 | 1.5 | 31 | – | – |
| CCCCCCC(C)(C)/C=C\C/C=C\C/C=C\C/C=C\CCCC(=O)N[C@H](C)CO | 1.1 | 65.2 | 1 | 85 | 60.6 | 95 | 2.4 | -2.8 | 1.7 | 220 | 6 | 100 |
| CCCCC/C=C\C/C=C\C/C=C\C/C=C\CCCC(=O)NC[C@H](C)O | – | 71.7 | – | – | 36.1 | – | – | – | 57 | – | – | – |
| CCCCC/C=C\C/C=C\C/C=C\C/C=C\CCCC(=O)NCCC | – | 51.2 | – | – | 10.9 | – | – | – | 2.6 | 238 | – | – |
| CCCCC/C=C\C/C=C\C/C=C\C/C=C\CCCC(=O)NCCOC | – | 34 | – | – | 3 | – | – | – | 44 | 466 | – | – |
| CCCCC/C=C\C/C=C\C/C=C\C/C=C\CCCC(=O)NCCO [ANANDAMIDE] | – | 100 | 6.2 | – | 52.7 | – | – | – | – | – | – | – |
| CCCCC/C=C\C/C=C\C/C=C\C/C=C\CCCC(=O)N[C@H](C)CO [METHANANDAMIDE] | – | 100 | – | – | 10.1 | – | – | – | – | – | – | – |
